Experimental data from ChEMBL document CHEMBL5390260 (J Med Chem, 2023).
The source made the active and inactive calls. No cut-off for these calls is given here.

Tests used:
[1] = test system: HT-29; test: Cytotoxicity against doxorubicin-sensitive human HT-29 cell assessed as reduction in cell viability at 1 to 100 nM incubated for 72 hrs by WST-1 assay; assay type: functional; settings: dose 1-100 nM
[2] = test system: MDCK; test: Cytotoxicity against MDCK cells assessed as reduction in cell viability at 1 to 100 nM incubated for 72 hrs by WST-1 assay; assay type: toxicity, cell-based, Canis lupus familiaris; settings: dog, 0.1 µM, dose 1-100 nM
[3] = Cytotoxicity against MDCK-P-gp cells assessed as reduction in cell viability at 1 to 100 nM incubated for 72 hrs by WST-1 assay; assay type: toxicity, cell-based, Canis lupus familiaris; settings: dog, 0.1 µM, dose 1-100 nM
[4] = test system: HT-29; test: Cytotoxicity against doxorubicin-resistant human HT-29 cell assessed as reduction in cell viability at 1 to 100 nM incubated for 72 hrs by WST-1 assay; assay type: functional; settings: dose 1-100 nM
[5] = biological target: Carbonic anhydrase 12 (Homo sapiens, UniProt O43570); test: Binding affinity to human recombinant CA12 assessed as inhibition constant incubated for 15 mins by phenol red dye based stopped flow CO2 hydration assay
[6] = biological target: Carbonic anhydrase 9 (Homo sapiens, UniProt Q16790)
[7] = test system: NCI/ADR-RES; test: Antiproliferative activity against human NCI/ADR-RES cells assessed as inhibition of cell growth measured after 48 hrs by sulforhodamine B assay; assay type: functional, cell-based
[8] = test system: SW480; test: Antiproliferative activity against human SW480 cells assessed as inhibition of cell growth measured after 48 to 72 hrs in presence of 5-fluorouracil by XTT assay; assay type: functional, cell-based
[9] = test system: HCT-116; test: Antiproliferative activity against human HCT-116 cells assessed as inhibition of cell growth measured after 48 to 72 hrs in presence of 5-fluorouracil by MTT assay; assay type: functional, cell-based
[10] = test system: SW-620; test: Antiproliferative activity against human SW620 cells assessed as inhibition of cell growth measured after 48 to 72 hrs in presence of 5-fluorouracil by XTT assay; assay type: functional, cell-based
[11] = test system: OVCAR-8; test: Antiproliferative activity against human OVCAR-8 cells assessed as inhibition of cell growth measured after 48 hrs by sulforhodamine B assay; assay type: functional, cell-based; settings: OVCAR-8, 48 h
[12] = test system: MCF7; test: Antiproliferative activity against human MCF7 cells assessed as inhibition of cell growth measured after 48 hrs by sulforhodamine B assay; assay type: functional, cell-based; settings: MCF7, 48 h
[13] = biological target: Tubulin (Homo sapiens) (UniProt P68371+Q9H4B7+P0DPH7+P68366+Q13509+Q71U36+P04350+Q3ZCM7+P07437+P68363+Q9BQE3+Q6PEY2+Q13885+Q9BVA1+Q9BUF5); test: Inhibition of tubulin polymerization (unknown origin) at 20 uM preincubated for 15 mins followed by GTP addition by spectrophotometric analysis; assay type: protein-complex assay
[14] = biological target: Carbonic anhydrase 2 (Homo sapiens, UniProt P00918); test: Binding affinity to human recombinant CA2 assessed as inhibition constant incubated for 15 mins by phenol red dye based stopped flow CO2 hydration assay
[15] = test system: MDA-MB-231; test: Antiproliferative activity against human MDA-MB-231 cells assessed as inhibition of cell growth at 0.1 to 30 uM measured after 72 hrs by propidium iodide staining based cytofluorimetric analysis; assay type: functional; settings: dose 0.1-30 µM
[16] = test system: HCT-116; test: Induction of apoptosis in human HCT-116 cells assessed as increase in cleaved PARP level upto 30 uM measured after 72 hrs by Western blotting analysis; assay type: functional, cell-based
[17] = test system: HT-29; test: Cytotoxicity against doxorubicin-resistant human HT-29 cell assessed as reduction in cell viability incubated for 72 hrs in presence of doxorubicin by WST-1 assay; assay type: functional, cell-based; settings: dose 1-100 nM
[18] = biological target: T1, ATP-dependent translocase ABCB1 (Homo sapiens, UniProt P08183); test: Inhibition of P-gp ATPase activity in doxorubicin-resistant human HT-29 cell assessed as reduction in rate of ATP hydrolysis at 10 nM incubated for 3 hrs by spectrophotometric analysis; assay type: cell-based; settings: 0.01 µM
[19] = test system: HEK293T; test: Inhibition of Wnt/beta-catenin signalling pathway in LiCl stimulated HEK293T cells transfected with renilla luciferase and FOPFlash reporter gene upto 30 uM incubated for 24 hrs by luminescence based analysis; assay type: cell-based; settings: Homo sapiens
[20] = test system: SW480; test: Antiproliferative activity against human SW480 cells assessed as inhibition of cell growth measured after 48 to 72 hrs by XTT assay; assay type: functional, cell-based
[21] = test system: MDCK-P-gp; test: Inhibition of P-gp ATPase activity in MDCK-P-gp cells assessed as reduction in rate of ATP hydrolysis at 10 nM incubated for 3 hrs by spectrophotometric analysis; assay type: cell-based; settings: Canis lupus familiaris
[22] = test system: HEK293T; test: Inhibition of Wnt/beta-catenin signalling pathway in LiCl stimulated HEK293T cells transfected with renilla luciferase and TOPFlash reporter gene incubated for 24 hrs by luminescence based analysis; assay type: cell-based; settings: Homo sapiens, dose <= 30.0 µM
[23] = test system: HCT-116; test: Inhibition of Wnt/beta-catenin signalling pathway in LiCl stimulated human HCT-116 cells assessed as reduction in Sal4 gene expression upto 30 uM incubated for 24 hrs by RT-PCR analysis; assay type: cell-based
[24] = test system: HT-29; test: Cytotoxicity against doxorubicin-resistant human HT-29 cell assessed as reduction in cell viability […] incubated for 72 hrs in presence of doxorubicin by WST-1 assay; assay type: functional, cell-based
[25] = biological target: T1, ATP-dependent translocase ABCB1; test: Inhibition of P-gp in human HT-29 cells assessed as effect on intracellular doxorubicin accumulation at 1 to 100 nM incubated for 72 hrs in presence of doxorubicin by spectrofluorimetric analysis; assay type: cell-based; settings: dose 1-100 nM
[26] = test system: MDCK-P-gp; test: Inhibition of P-gp in MDCK-P-gp cells assessed as effect on intracellular doxorubicin accumulation at 1 to 100 nM incubated for 72 hrs in presence of doxorubicin by […] assay; assay type: cell-based; settings: Canis lupus familiaris, dose 1-100 nM
[27] = test system: MDCK; test: Cytotoxicity against MDCK cells assessed as reduction in cell viability at 1 to 100 nM incubated for 72 hrs in presence of doxorubicin by WST-1 assay; assay type: toxicity, cell-based, Canis lupus familiaris; settings: dog, 0.1 µM, dose 1-100 nM
[28] = test system: HCT-116; test: Antiproliferative activity against human HCT-116 cells assessed as inhibition of cell growth measured after 48 to 72 hrs by MTT assay; assay type: functional, cell-based
[29] = test system: T-cell; test: Induction of apoptosis in human T-lymphocyte assessed as late apoptotic cells at 30 uM measured after 72 hrs by Annexin-V/propidium iodide staining based flow cytometric analysis (reference value: 14%); assay type: toxicity
[30] = test system: BT-549; test: Antiproliferative activity against human BT-549 cells assessed as inhibition of cell growth at 0.1 to 30 uM measured after 72 hrs by propidium iodide staining based cytofluorimetric analysis; assay type: functional; settings: dose 0.1-30 µM
[31] = test system: T-cell; test: Induction of apoptosis in human T-lymphocyte assessed as increase in cell death at 30 uM measured after 72 hrs by Annexin-V/propidium iodide staining based flow cytometric analysis relative to control; assay type: toxicity
[32] = test system: HCT-116; test: Inhibition of Wnt/beta-catenin signalling pathway in LiCl stimulated human HCT-116 cells assessed as reduction in c-MYC level upto 30 uM incubated for 24 hrs by Western blotting analysis; assay type: cell-based
[33] = test system: HT-29; test: Cytotoxicity against doxorubicin-sensitive human HT-29 cell assessed as reduction in cell viability at 1 to 100 nM incubated for 72 hrs in presence of doxorubicin by WST-1 assay; assay type: functional, cell-based; settings: dose 1-100 nM
[34] = test system: SW-620; test: Antiproliferative activity against human SW620 cells assessed as inhibition of cell growth measured after 48 to 72 hrs by XTT assay; assay type: functional, cell-based
[35] = test system: HCT-116; test: Inhibition of Wnt/beta-catenin signalling pathway in LiCl stimulated human HCT-116 cells assessed as reduction in […] gene expression upto 30 uM incubated for 24 hrs by RT-PCR analysis; assay type: cell-based
[36] = Cytotoxicity against MDCK-P-gp cells assessed as reduction in cell viability incubated for 72 hrs in presence of doxorubicin by WST-1 assay; assay type: toxicity, cell-based, Canis lupus familiaris; settings: dog, dose 1-100 nM
[37] = test system: HCT-116; test: Induction of apoptosis in human HCT-116 cells assessed as increase in cleaved caspase-3 level upto 30 uM measured after 72 hrs by Western blotting analysis; assay type: functional, cell-based
[38] = test system: HCT-116; test: Inhibition of Wnt/beta-catenin signalling pathway in LiCl stimulated human HCT-116 cells assessed as reduction in beta-catenin level upto 30 uM incubated for 24 hrs by Western blotting analysis; assay type: cell-based
[39] = biological target: T1, ATP-dependent translocase ABCB1; test: Inhibition of P-gp in doxorubicin-resistant human HT-29 cell assessed as increase in intracellular doxorubicin accumulation incubated for 72 hrs in presence of doxorubicin by spectrofluorimetric analysis; assay type: cell-based; settings: 0.1 µM, dose 100 nM

Sequence of Carbonic anhydrase 12 (O43570 whole entry): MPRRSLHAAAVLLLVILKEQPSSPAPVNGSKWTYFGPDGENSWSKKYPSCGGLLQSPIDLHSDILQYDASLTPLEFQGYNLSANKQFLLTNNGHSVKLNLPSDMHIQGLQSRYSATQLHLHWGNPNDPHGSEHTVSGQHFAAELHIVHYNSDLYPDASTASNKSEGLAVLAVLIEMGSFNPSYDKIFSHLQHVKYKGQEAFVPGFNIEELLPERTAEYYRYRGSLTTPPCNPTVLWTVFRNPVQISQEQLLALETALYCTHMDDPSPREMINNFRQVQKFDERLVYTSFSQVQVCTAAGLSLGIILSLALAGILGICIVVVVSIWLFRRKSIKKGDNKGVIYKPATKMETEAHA
T1 sequence (P08183 whole entry): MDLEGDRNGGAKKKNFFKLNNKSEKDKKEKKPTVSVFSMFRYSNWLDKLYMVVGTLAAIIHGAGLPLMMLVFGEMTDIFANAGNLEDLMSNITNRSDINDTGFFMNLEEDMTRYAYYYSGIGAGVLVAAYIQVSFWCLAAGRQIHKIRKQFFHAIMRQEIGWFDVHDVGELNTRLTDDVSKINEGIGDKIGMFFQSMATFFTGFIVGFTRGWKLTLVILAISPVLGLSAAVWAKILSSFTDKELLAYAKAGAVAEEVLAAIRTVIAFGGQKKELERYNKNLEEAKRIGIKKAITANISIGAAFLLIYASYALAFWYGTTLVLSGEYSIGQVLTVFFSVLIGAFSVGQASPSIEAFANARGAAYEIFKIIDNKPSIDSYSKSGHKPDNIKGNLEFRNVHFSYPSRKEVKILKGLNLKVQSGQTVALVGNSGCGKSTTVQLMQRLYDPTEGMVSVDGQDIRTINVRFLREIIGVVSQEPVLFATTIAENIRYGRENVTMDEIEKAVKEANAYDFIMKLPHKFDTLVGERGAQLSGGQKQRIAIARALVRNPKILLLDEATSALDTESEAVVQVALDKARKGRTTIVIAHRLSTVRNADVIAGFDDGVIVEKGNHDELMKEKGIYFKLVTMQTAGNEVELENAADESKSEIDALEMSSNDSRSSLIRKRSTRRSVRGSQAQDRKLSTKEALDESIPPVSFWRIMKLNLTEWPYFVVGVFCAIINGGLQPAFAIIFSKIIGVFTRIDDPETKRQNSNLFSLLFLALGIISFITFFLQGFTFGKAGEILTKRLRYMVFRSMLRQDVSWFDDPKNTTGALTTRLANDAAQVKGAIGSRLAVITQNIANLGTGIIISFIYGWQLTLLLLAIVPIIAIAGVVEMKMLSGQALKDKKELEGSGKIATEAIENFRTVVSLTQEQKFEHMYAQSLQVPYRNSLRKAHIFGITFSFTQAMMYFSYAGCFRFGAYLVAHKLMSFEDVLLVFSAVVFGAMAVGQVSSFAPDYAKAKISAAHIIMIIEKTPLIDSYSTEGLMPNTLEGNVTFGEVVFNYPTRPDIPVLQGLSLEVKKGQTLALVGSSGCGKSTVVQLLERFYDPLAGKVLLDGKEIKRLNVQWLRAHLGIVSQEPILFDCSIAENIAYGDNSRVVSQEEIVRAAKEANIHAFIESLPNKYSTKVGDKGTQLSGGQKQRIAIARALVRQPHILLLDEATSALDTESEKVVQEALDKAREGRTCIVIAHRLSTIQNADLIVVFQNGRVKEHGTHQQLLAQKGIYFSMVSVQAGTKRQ

**Q.** With `COc1cccc2c1C(=O)c1c(O)c3c(c(O)c1C2=O)C[C@@](O)(C(=O)CO)C[C@@H]3O[C@H]1C[C@H](N)[C@H](O)[C@H](C)O1` [DOXORUBICIN] as the compound, how does the Activity [1] read?
**A.** Active

**Q.** And the Activity [2]?
**A.** Toxic

**Q.** What about the Activity [3] of the same compound?
**A.** Non-Toxic

**Q.** And the Activity [4]?
**A.** inactive

**Q.** Which results are given for `NS(=O)(=O)c1ccc(-n2ccc(C(=O)c3ccccc3)c2)cc1`?
**A.** Ki [5]: 47.1 nM; Ki [6]: 66 nM

**Q.** Which EC50 [7] does the source give for `Nc1ccc(C(=O)c2ccc(-c3ccc(S(N)(=O)=O)cc3)cc2)cc1` here?
**A.** 2100 nM

**Q.** Which Ki [5] does the source give for `NS(=O)(=O)c1ccc(-n2cc(C(=O)c3ccccc3)c3ccccc32)cc1` here?
**A.** 52 nM

**Q.** And the Ki [6]?
**A.** 31.6 nM

**Q.** With `COc1cc(C(=O)c2cn(-c3ccc(S(N)(=O)=O)cc3)c3ccccc23)cc(OC)c1OC` as the compound, how does the IC50 [8] read?
**A.** 50300 nM

**Q.** What about the IC50 [9] of the same compound?
**A.** 14000 nM

**Q.** What about the IC50 [10] of the same compound?
**A.** 25800 nM

**Q.** Which results are given for `COc1cc(C(=O)c2ccn(-c3ccc(S(N)(=O)=O)cc3)c2)cc(OC)c1OC`?
**A.** IC50 [11]: 1900 nM; IC50 [12]: 3900 nM; inhibition [13]: inactive; Ki [5]: 11.5 nM; IC50 [7]: 2200 nM; Ki [14]: 10.2 nM; Ki [6]: 44.8 nM

**Q.** With `COc1cc(C(=O)c2cn(-c3ccc(S(N)(=O)=O)cc3)cc2-c2ccccc2)cc(OC)c1OC` as the compound, how does the Activity [15] read?
**A.** Active

**Q.** And the Activity [16]?
**A.** Active

**Q.** What about the Activity [17] of the same compound?
**A.** Dose-Dependent Effect

**Q.** And the “inhibition (INH)” value [18]?
**A.** Active

**Q.** And the Activity [1]?
**A.** >75%

**Q.** What about the Activity [2] of the same compound?
**A.** > 75%

**Q.** And the inhibition [19]?
**A.** inactive

**Q.** What about the IC50 [11] of the same compound?
**A.** 1900 nM

**Q.** What about the Activity [3] of the same compound?
**A.** > 75%

**Q.** And the IC50 [20]?
**A.** 17700 nM

**Q.** And the IC50 [8]?
**A.** 42900 nM

**Q.** What about the IC50 [12] of the same compound?
**A.** 1900 nM

**Q.** What about the IC50 [9] of the same compound?
**A.** 17000 nM

**Q.** And the inhibition [21]?
**A.** Active

**Q.** What about the inhibition [22] of the same compound?
**A.** Dose-Dependent Effect

**Q.** What about the inhibition [23] of the same compound?
**A.** Active

**Q.** And the Activity [24]?
**A.** Active

**Q.** What about the “inhibition (INH)” value [25] of the same compound?
**A.** Not Active

**Q.** What about the inhibition [26] of the same compound?
**A.** inactive

**Q.** What about the Activity [27] of the same compound?
**A.** Non-Toxic

**Q.** What about the IC50 [28] of the same compound?
**A.** 8700 nM

**Q.** And the Activity [29]?
**A.** 20%

**Q.** And the Activity [30]?
**A.** Active

**Q.** What about the IC50 [7] of the same compound?
**A.** 2100 nM

**Q.** What about the Activity [31] of the same compound?
**A.** 6%

**Q.** What about the inhibition [32] of the same compound?
**A.** Active

**Q.** What about the Activity [33] of the same compound?
**A.** Active

**Q.** And the IC50 [34]?
**A.** 23800 nM

**Q.** What about the Activity [4] of the same compound?
**A.** >75%

**Q.** What about the inhibition [35] of the same compound?
**A.** Active

**Q.** And the Activity [36]?
**A.** Dose-Dependent Effect

**Q.** And the Activity [37]?
**A.** Active

**Q.** And the IC50 [10]?
**A.** 37300 nM

**Q.** And the inhibition [38]?
**A.** Active

**Q.** And the “inhibition (INH)” value [39]?
**A.** Dose-Dependent Effect

**Q.** Which results are given for `NS(=O)(=O)c1ccc(-n2cc(C(=O)c3ccccc3)c(-c3ccccc3)c2)cc1`?
**A.** Ki [5]: 59.4 nM; Ki [6]: 38.6 nM
